Legend:
[1] = target: Serine/threonine-protein kinase AKT (Homo sapiens, UniProt P31751+Q9Y243+P31749); experiment: Inhibition of Akt (proto-oncogenic serine/threonine) kinase; assay type: protein assay
MCF7 = experiment: Inhibition of MCF-7 (breast) cancer cell proliferation; assay type: functional, cell-based; conditions: Homo sapiens
[2] = target: PI3-kinase p110-alpha/p85-alpha (Homo sapiens, UniProt P42336); experiment: Inhibition of […]/p85 PI3-kinase (phosphatidylinositol 3-kinase); assay type: protein-complex assay
NIH3T3 = experiment: Inhibition of NIH3T3 cell proliferation; assay type: functional, cell-based; conditions: Mus musculus
HT-29 = experiment: Inhibition of human colon carcinoma (HT-29) cell proliferation; assay type: functional, cell-based
[3] = Partition coefficient (logP); assay type: physicochemical; conditions: octanol/water

Sequence of PI3-kinase p110-alpha/p85-alpha (P27986 whole entry): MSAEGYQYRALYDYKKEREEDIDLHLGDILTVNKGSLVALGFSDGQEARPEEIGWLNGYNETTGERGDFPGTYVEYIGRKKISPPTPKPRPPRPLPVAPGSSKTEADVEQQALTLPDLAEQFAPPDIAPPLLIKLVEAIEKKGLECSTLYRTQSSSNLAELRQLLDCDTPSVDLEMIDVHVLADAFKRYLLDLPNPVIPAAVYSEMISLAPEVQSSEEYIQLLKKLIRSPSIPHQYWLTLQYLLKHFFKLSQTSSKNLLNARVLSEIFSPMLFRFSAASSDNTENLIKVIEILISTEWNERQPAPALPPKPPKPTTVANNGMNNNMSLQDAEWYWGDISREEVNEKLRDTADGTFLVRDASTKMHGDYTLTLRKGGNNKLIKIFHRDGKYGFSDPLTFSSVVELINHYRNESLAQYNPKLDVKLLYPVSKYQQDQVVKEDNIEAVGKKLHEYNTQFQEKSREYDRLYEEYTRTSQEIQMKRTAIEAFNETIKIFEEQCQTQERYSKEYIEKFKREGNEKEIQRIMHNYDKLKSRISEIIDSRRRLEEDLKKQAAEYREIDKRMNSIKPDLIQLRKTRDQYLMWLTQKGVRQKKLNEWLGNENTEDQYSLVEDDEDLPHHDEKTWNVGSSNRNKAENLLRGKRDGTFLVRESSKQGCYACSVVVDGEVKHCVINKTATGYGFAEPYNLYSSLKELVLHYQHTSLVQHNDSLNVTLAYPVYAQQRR
Sequence of PI3-kinase p110-alpha/p85-alpha (P42336 whole entry): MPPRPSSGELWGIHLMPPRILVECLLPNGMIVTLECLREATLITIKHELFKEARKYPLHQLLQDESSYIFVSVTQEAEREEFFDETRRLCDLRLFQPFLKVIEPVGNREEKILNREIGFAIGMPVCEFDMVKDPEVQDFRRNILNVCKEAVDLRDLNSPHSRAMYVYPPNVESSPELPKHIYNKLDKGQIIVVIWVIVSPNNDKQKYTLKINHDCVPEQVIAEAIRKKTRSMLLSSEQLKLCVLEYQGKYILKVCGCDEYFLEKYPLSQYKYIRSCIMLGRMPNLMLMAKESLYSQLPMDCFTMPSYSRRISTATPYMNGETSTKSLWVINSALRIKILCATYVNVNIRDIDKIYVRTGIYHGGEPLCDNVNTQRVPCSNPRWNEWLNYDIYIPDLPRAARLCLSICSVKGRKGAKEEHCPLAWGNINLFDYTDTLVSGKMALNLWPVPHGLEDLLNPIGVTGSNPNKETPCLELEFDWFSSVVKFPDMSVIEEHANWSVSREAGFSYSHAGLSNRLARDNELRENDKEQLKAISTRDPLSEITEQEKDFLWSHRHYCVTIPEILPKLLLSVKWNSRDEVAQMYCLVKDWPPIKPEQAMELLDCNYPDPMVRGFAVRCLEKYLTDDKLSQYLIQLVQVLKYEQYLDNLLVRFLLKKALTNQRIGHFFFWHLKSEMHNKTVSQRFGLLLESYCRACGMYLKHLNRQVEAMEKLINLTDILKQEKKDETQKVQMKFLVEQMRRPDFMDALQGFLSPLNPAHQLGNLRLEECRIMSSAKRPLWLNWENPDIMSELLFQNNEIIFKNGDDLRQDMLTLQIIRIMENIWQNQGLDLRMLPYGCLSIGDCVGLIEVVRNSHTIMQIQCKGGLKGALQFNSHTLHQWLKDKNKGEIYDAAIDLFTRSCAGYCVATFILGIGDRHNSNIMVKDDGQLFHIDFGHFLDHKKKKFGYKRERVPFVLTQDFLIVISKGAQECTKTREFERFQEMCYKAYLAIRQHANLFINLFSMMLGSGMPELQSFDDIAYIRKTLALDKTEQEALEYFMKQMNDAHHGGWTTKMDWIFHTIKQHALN

Structure (SMILES) | IC50 [1] [µM] | IC50 (MCF7) [µM] | IC50 [2] [µM] | IC50 (HT-29) [µM] | logP [3] | IC50 (NIH3T3) [µM]
CCCCCCCCCCCCCCCCCCOC[C@H](COC(=O)OC1[C@@H](O)[C@@H](O)[C@H](O)[C@H](CO)[C@H]1O)OC (single isomer, unassigned) | 5 | 1.25 | 83 | 10 | – | 2
CCCCCCCCCCCCCCCCCCOC[C@H](COP(=O)(O)OC1[C@H](O)C[C@@H](O)[C@H](O)[C@@H]1O)n1ccnc1 (single isomer, unassigned) | 37.5 | 6 | 14.5 | 15 | – | 6.5
CCCCCCCCCCCCCCCCCCOC[C@H](COP(=O)(O)OC1[C@@H](O)[C@@H](O)[C@H](O)[C@H](CO)[C@H]1O)OC (single isomer, unassigned) | 7.8 | 5 | 31 | 4.5 | – | 2
CCCCCCCCCCCCCCCCCCOC[C@H](COC(=O)OC1[C@@H](O)[C@@H](O)[C@H](O)[C@H](CO)[C@@H]1O)n1ccnc1 (single isomer, unassigned) | 15 | 20 | 49.5 | 15 | – | 11.5

Further molecules by falling IC50 [2], results first:

IC50 [1] [µM] | IC50 (MCF7) [µM] | IC50 [2] [µM] | IC50 (HT-29) [µM] | logP [3] | Structure (SMILES) | IC50 (NIH3T3) [µM]
– | – | 14.8 | – | 4.44 | CCCCCCCCCCCCCCCCCCOC[C@H](COP(=O)(O)OC1[C@H](O)C[C@@H](O)[C@H](O)[C@@H]1O)OC (single isomer, unassigned) | 4.5
20.5 | 2 | 7.9 | 6.5 | 3.22 | CCCCCCCCCCCCCCCCCCOC[C@H](COP(=O)(O)OC1[C@@H](O)[C@@H](O)[C@H](O)[C@H](CO)[C@H]1O)n1ccnc1 (single isomer, unassigned) | 8.2

Reference: ChEMBL document CHEMBL1133999, “3-Deoxy-3-substituted-D-myo-inositol imidazolyl ether lipid phosphates and carbonate as inhibitors of the phosphatidylinositol 3-kinase pathway and cancer cell growth” (Bioorg Med Chem Lett, 2001)
